Measured values as given in patent US20250098679A1, “HERBICIDAL PYRIDONE DERIVATIVES” (SYNGENTA CROP PROTECTION AG, priority 2021, published 2025).

Key:
Type in all cases: in vivo
Conditions in all cases: evaluated after 13 days
[1] = system: Echinochloa crus-galli (ECHCG); assay: Pre-emergence Test, Echinochloa crus-galli (ECHCG)
Zea mays (ZEAMX) [2] = assay: Pre-emergence Test, Zea mays (ZEAMX)
[3] = system: Ipomoea hederacea (IPOHE); assay: Pre-emergence Test, Ipomoea hederacea (IPOHE)
[4] = system: Amaranthus palmeri (AMAPA); assay: Pre-emergence Test, Amaranthus palmeri (AMAPA)
[5] = system: Amaranthus retoflexus (AMARE); assay: Pre-emergence Test, Amaranthus retoflexus (AMARE)
Setaria faberi (SETFA) = assay: Post-emergence Test, Setaria faberi (SETFA); design: key to percentage damage caused to the plant, SETFA (five-point scale): 5=81-100%, 4=61-80%, 3=41-60%, 2=21-40%, 1=0-20% damage
Method in brief: (§1)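 Tested at 1000 g/ha unless otherwise stated. Plants were held at 24/16 °C day/night with a 14 h light period. Percent damage was read at 13 days and reported in five bands.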

[6] = system: Echinochloa crus-galli (ECHCG); assay: Post-emergence Test, Echinochloa crus-galli (ECHCG); design: key to percentage damage caused to the plant, ECHCG (five-point scale): 5=81-100%, 4=61-80%, 3=41-60%, 2=21-40%, 1=0-20% damage
Method in brief: as §1

Zea mays (ZEAMX) [7] = assay: Post-emergence Test, Zea mays (ZEAMX); design: key to percentage damage caused to the plant, ZEAMX (five-point scale): 5=81-100%, 4=61-80%, 3=41-60%, 2=21-40%, 1=0-20% damage
Method in brief: as §1

[8] = system: Ipomoea hederacea (IPOHE); assay: Post-emergence Test, Ipomoea hederacea (IPOHE); design: key to percentage damage caused to the plant, IPOHE (five-point scale): 5=81-100%, 4=61-80%, 3=41-60%, 2=21-40%, 1=0-20% damage
Method in brief: as §1

[9] = system: Amaranthus palmeri (AMAPA); assay: Post-emergence Test, Amaranthus palmeri (AMAPA); design: key: 5=81-100%, 4=61-80%, 3=41-60%, 2=21-40%, 1=0-20% damage
Method in brief: as §1

[10] = system: Amaranthus retoflexus (AMARE); assay: Post-emergence Test, Amaranthus retoflexus (AMARE); design: key to percentage damage caused to the plant, AMARE (five-point scale): 5=81-100%, 4=61-80%, 3=41-60%, 2=21-40%, 1=0-20% damage
Method in brief: as §1

| Compound | Pre-emergence Test ECHCG, percentage damage caused to the plant (five-point scale) ([1]; 1000 g/ha) | Pre-emergence Test ZEAMX, percentage damage caused to the plant (five-point scale) (Zea mays (ZEAMX) [2]; 1000 g/ha) | Pre-emergence Test IPOHE, percentage damage caused to the plant (five-point scale) ([3]; 1000 g/ha) | Pre-emergence Test AMAPA, percentage damage caused to the plant (five-point scale) ([4]; 1000 g/ha) | Pre-emergence Test AMARE, percentage damage caused to the plant (five-point scale) ([5]; 1000 g/ha) | percentage damage caused to the plant, SETFA (five-point scale) (Setaria faberi (SETFA); 1000 g/ha) | percentage damage caused to the plant, ECHCG (five-point scale) ([6]; 250 g/Ha) | percentage damage caused to the plant, ZEAMX (five-point scale) (Zea mays (ZEAMX) [7]; 250 g/Ha) | percentage damage caused to the plant, ZEAMX (five-point scale) (Zea mays (ZEAMX) [7]; 1000 g/ha) | percentage damage caused to the plant, IPOHE (five-point scale) ([8]; 250 g/Ha) | percentage damage caused to the plant, IPOHE (five-point scale) ([8]; 1000 g/ha) | percentage damage caused to the plant, AMAPA (five-point scale) ([9]; 250 g/Ha) | percentage damage caused to the plant, AMAPA (five-point scale) ([9]; 1000 g/ha) | percentage damage caused to the plant, AMARE (five-point scale) ([10]; 250 g/Ha) | percentage damage caused to the plant, AMARE (five-point scale) ([10]; 1000 g/ha) | further results |
| --- | --- | --- | --- | --- | --- | --- | --- | --- | --- | --- | --- | --- | --- | --- | --- | --- |
| CCn1c(Cn2nc(-c3ccccc3)cc2C(F)(F)F)cc(=O)c(C(=O)O)c1-c1ccc(Cl)c(Cl)c1 [Compound 198, 2-(3,4-dichlorophenyl)-1-ethyl-4-oxo-6-[[3-phenyl-5-(trifluoromethyl)pyrazol-1-yl]methyl]pyridine-3-carboxylic acid] | 1 (1=0-20%) | 1 (1=0-20%) | 0 | 1 (1=0-20%) | 1 (1=0-20%) | – | – | – | – | – | – | – | – | – | – | Post-emergence Test SETFA, percentage damage caused to the plant (five-point scale) (Setaria faberi (SETFA); 1000 g/ha): 2 (2=21-40%); Post-emergence Test ECHCG, percentage damage caused to the plant (five-point scale) ([6]; 250 g/Ha (*)): 2 (2=21-40%); Post-emergence Test ZEAMX, percentage damage caused to the plant (five-point scale) (Zea mays (ZEAMX) [7]; 250 g/Ha (*)): 1 (1=0-20%); Post-emergence Test ZEAMX, percentage damage caused to the plant (five-point scale) (Zea mays (ZEAMX) [7]; 1000 g/ha): 2 (2=21-40%); Post-emergence Test IPOHE, percentage damage caused to the plant (five-point scale) ([8]; 250 g/Ha (*)): 1 (1=0-20%); Post-emergence Test IPOHE, percentage damage caused to the plant (five-point scale) ([8]; 1000 g/ha): 2 (2=21-40%); Post-emergence Test AMAPA, percentage damage caused to the plant (five-point scale) ([9]; 250 g/Ha (*)): 1 (1=0-20%); Post-emergence Test AMAPA, percentage damage caused to the plant (five-point scale) ([9]; 1000 g/ha): 3 (3=41-60%); Post-emergence Test AMARE, percentage damage caused to the plant (five-point scale) ([10]; 250 g/Ha (*)): 1 (1=0-20%); Post-emergence Test AMARE, percentage damage caused to the plant (five-point scale) ([10]; 1000 g/ha): 4 (4=61-80%) |
| CCn1c(Cn2nc(C(F)F)cc2C)cc(=O)c(C(=O)O)c1-c1ccc(Cl)c(Cl)c1 [Compound 187, 2-(3,4-dichlorophenyl)-6-[[3-(difluoromethyl)-5-methyl-pyrazol-1-yl]methyl]-1-ethyl-4-oxo-pyridine-3-carboxylic acid] | 1 (1=0-20%) | 1 (1=0-20%) | 3 (3=41-60%) | 0 | 0 | 1 (1=0-20%) | 2 (2=21-40%) | 0 | 1 (1=0-20%) | 1 (1=0-20%) | 4 (4=61-80%) | 0 | 1 (1=0-20%) | 0 | 1 (1=0-20%) | – |
| CCn1c(Cn2ccc(-c3ccc(F)cc3)n2)cc(=O)c(C(=O)O)c1-c1ccc(Cl)c(Cl)c1 [Compound 193, 2-(3,4-dichlorophenyl)-1-ethyl-6-[[3-(4-fluorophenyl)pyrazol-1-yl]methyl]-4-oxo-pyridine-3-carboxylic acid] | 0 | 0 | 1 (1=0-20%) | 0 | 0 | 0 | 3 (3=41-60%) | 0 | 1 (1=0-20%) | 0 | 2 (2=21-40%) | 0 | 1 (1=0-20%) | 0 | 1 (1=0-20%) | – |
| CCn1c(Cn2ncc(C(F)(F)F)n2)cc(=O)c(C(=O)O)c1-c1ccc(Cl)c(Cl)c1 [Compound 189, 2-(3,4-dichlorophenyl)-1-ethyl-4-oxo-6-[[4-(trifluoromethyl)triazol-2-yl]methyl]pyridine-3-carboxylic acid] | – | – | – | – | – | – | 4 (4=61-80%) | 4 (4=61-80%) | – | 4 (4=61-80%) | – | 5 (5=81-100%) | – | 4 (4=61-80%) | – | Pre-emergence Test ECHCG, percentage damage caused to the plant (five-point scale) ([1]; 250 g/Ha (*)): 5 (5=81-100%); Pre-emergence Test ZEAMX, percentage damage caused to the plant (five-point scale) (Zea mays (ZEAMX) [2]; 250 g/Ha (*)): 4 (4=61-80%); Pre-emergence Test IPOHE, percentage damage caused to the plant (five-point scale) ([3]; 250 g/Ha (*)): 3 (3=41-60%); Pre-emergence Test AMAPA, percentage damage caused to the plant (five-point scale) ([4]; 250 g/Ha (*)): 2 (2=21-40%); Pre-emergence Test AMARE, percentage damage caused to the plant (five-point scale) ([5]; 250 g/Ha (*)): 2 (2=21-40%) |
| CCn1c(Cn2ccc(Br)n2)cc(=O)c(C(=O)O)c1-c1ccc(Cl)c(Cl)c1 [Compound 177, 6-[(3-bromopyrazol-1-yl)methyl]-2-(3,4-dichlorophenyl)-1-ethyl-4-oxo-pyridine-3-carboxylic acid] | 5 (5=81-100%) | 0 | 2 (2=21-40%) | 1 (1=0-20%) | 1 (1=0-20%) | 4 (4=61-80%) | 3 (3=41-60%) | 1 (1=0-20%) | 1 (1=0-20%) | 4 (4=61-80%) | 3 (3=41-60%) | 2 (2=21-40%) | 2 (2=21-40%) | 1 (1=0-20%) | 3 (3=41-60%) | Pre-emergence Test ECHCG, percentage damage caused to the plant (five-point scale) ([1]; 250 g/Ha (*)): 4 (4=61-80%); Pre-emergence Test ZEAMX, percentage damage caused to the plant (five-point scale) (Zea mays (ZEAMX) [2]; 250 g/Ha (*)): 0; Pre-emergence Test IPOHE, percentage damage caused to the plant (five-point scale) ([3]; 250 g/Ha (*)): 1 (1=0-20%); Pre-emergence Test AMAPA, percentage damage caused to the plant (five-point scale) ([4]; 250 g/Ha (*)): 1 (1=0-20%); Pre-emergence Test AMARE, percentage damage caused to the plant (five-point scale) ([5]; 250 g/Ha (*)): 0 |
| CCn1c(Cn2nc(C(F)F)c3c2CCOC3)cc(=O)c(C(=O)O)c1-c1ccc(Cl)c(Cl)c1 [Compound 87, 2-(3,4-dichlorophenyl)-6-[[3-(difluoromethyl)-6,7-dihydro-4H-pyrano[4,3-c]pyrazol-1-yl]methyl]-1-ethyl-4-oxo-pyridine-3-carboxylic acid] | – | – | – | – | – | 1 (1=0-20%) | 1 (1=0-20%) | 1 (1=0-20%) | 1 (1=0-20%) | 0 | 1 (1=0-20%) | 0 | 2 (2=21-40%) | 0 | 1 (1=0-20%) | percentage damage caused to the plant, SETFA (five-point scale) (Setaria faberi (SETFA); 250 g/Ha): 0; percentage damage caused to the plant, ECHCG (five-point scale) ([6]; 1000 g/ha): 1 (1=0-20%) |
| CCn1c(Cn2ccc(C(F)(F)F)n2)cc(=O)c(C(=O)O)c1-c1ccc(Cl)c(S(C)(=O)=O)c1 [Compound 116, 2-(4-chloro-3-methylsulfonyl-phenyl)-1-ethyl-4-oxo-6-[[3-(trifluoromethyl)pyrazol-1-yl]methyl]pyridine-3-carboxylic acid] | – | – | – | – | – | 1 (1=0-20%) | – | – | 1 (1=0-20%) | – | 1 (1=0-20%) | – | 1 (1=0-20%) | – | 1 (1=0-20%) | percentage damage caused to the plant, ECHCG (five-point scale) ([6]; 1000 g/ha): 1 (1=0-20%) |
| CCn1c(Cn2nc(C(C)(C)C)cc2C(F)(F)F)cc(=O)c(C(=O)O)c1-c1ccc(Cl)c(Cl)c1 [Compound 181, 6-[[3-tert-butyl-5-(trifluoromethyl)pyrazol-1-yl]methyl]-2-(3,4-dichlorophenyl)-1-ethyl-4-oxo-pyridine-3-carboxylic acid] | – | – | – | – | – | 0 | 1 (1=0-20%) | 0 | 0 | 0 | 1 (1=0-20%) | 0 | 1 (1=0-20%) | 0 | 1 (1=0-20%) | – |
